{"source": "patent US20070275988A1", "about": "“Transition state structure and inhibitors of thymidine phosphorylases” (priority 2003, published 2007)", "key": {"[1]": {"settings": "FUra versus FdUrd; cited from earlier work"}, "angiogenesis": {"system": "angiogenesis", "settings": "cited from earlier work"}, "[2]": {"substrate": "O=c1[nH]c(=O)n([C@H]2C[C@H](O)[C@@H](CO)O2)cc1[N+](=O)[O-]", "experiment": "UV-Vis spectrophotometric thymidine phosphorylase assay with 5NdU as substrate", "assay_type": "biochemical", "settings": "other: substrate, pH 6.01", "protocol": "Binding constants were determined by UV-Vis spectrophotometery using 2′-deoxy-5-nitrouridine (5NdU) as the substrate (Km=50 μM at pH 6.01). The reaction mixture consisted of inhibitor (approximately 1/10×Ki to 10×Ki), 50 mM MES (pH 6.01), 150 mM NaCl, 1 mM EDTA, 5 mM inorganic phosphate, and 250 μM 5NdU in a total of 1 ml. Thymidine phosphorylase was added to approximately 10 nM (1 nM enzyme was used for D723333-P) and the reaction was monitored at λ=347 nm for 30 min. At least five concentrations of inhibitor were used for each compound and experiments were repeated in triplicate. Initial rates were determined by a linear least-squares fit. The Ki for each compound was then determined using the following equation: [formula] where ν is the rate of reaction and V is the maximal rate in the absence of inhibitor."}}}
{"molecule": "O=c1[nH]cc(F)c(=O)[nH]1", "note": "[FUra, 5-fluorouracil]", "values": [{"measurement": "fold less potent than FdUrd", "setting": "[1]", "value": "100 to 1000", "unit": "fold"}]}
{"molecule": "N=C1CCCN1Cc1[nH]c(=O)[nH]c(=O)c1Cl", "note": "[TPI]", "values": [{"measurement": "antiangiogenic activity in vivo", "setting": "angiogenesis", "value": "some antiangiogenic activity in vivo"}]}
{"molecule": "Thymidine phosphorylase (Homo sapiens) (protein) APPAPGDFSGEGSQGLPDPSPEPKQLPELIRMKRDGGRLSEADIRGFVAAVVNGSAQGAQIGAMLMAIRLRGMDLEETSVLTQALAQSGQQLEWPEAWRQQLVDKHSTGGVGDKVSLVLAPALAACGCKVPMISGRGLGHTGGTLDKLESIPGFNVIQSPEQMQVLLDQAGCCIVGQSEQLVPADGILYAARDVTATVDSLPLITASILSKKLVEGLSALVVDVKFGGAAVFPNQEQARELAKTLVGVGASLGLRVAAALTAMDKPLGRCVGHALEVEEALLCMDGAGPPDLRDLVTTLGGALLWLSGHAGTQAQGAARVAAALDDGSALGRFERMLAAQGVDPGLARALCSGSPAERRQLLPRAREQEELLAPADGTVELVRALPLALVLHELGAGRSRAGEPLRLGVGAELLVDVGQRLRRGTPWLRVHRDGPALSGPQSRALQEALVLSDRAPFAAPSPFAELVLPPQQ", "values": [{"measurement": "Km", "setting": "[2]", "value": 50, "unit": "µM"}]}
